For data set [1], the system named is Vesicular stomatitis virus. Description: Antiviral activity against vesicular stomatitis virus. Format: functional, organism-based.
Another data set concerns Vaccinia virus. Description: Antiviral activity against vaccinia virus. Format: functional, organism-based. As to conditions: Orthopoxvirus vaccinia.
For a further data set, the system named is Reovirus sp. Description: Antiviral activity against Reovirus. Format: functional, organism-based.
Data set [2] deals with Human immunodeficiency virus 1. Description: Antiviral activity against HIV1. It counts as functional, organism-based.
A short description of data set [3]: Cytotoxicity against human MT4 cells after 96 hrs by MTT method. It counts as cell-based.
The test system of data set [4] is Bovine viral diarrhea virus 1. As to the kind of experiment: Antiviral activity against BVDV NADL in MDBK cells assessed as protection from virus-induced cytopathogenicity by MTT method. Format: functional, organism-based. To be noted: Bovine viral diarrhea virus isolates and strains. A general note: Protection from cytopathic effect is a common read-out in antiviral testing.

In a further data set the test system is Yellow fever virus. Description: Antiviral activity against YFV in BHK cells assessed as protection from virus-induced cytopathogenicity by MTT method. It counts as functional, organism-based.
Data set [5] concerns Respiratory syncytial virus. As to the kind of experiment: Antiviral activity against RSV A2 in VERO76 cells assessed as reduction of plaque number by MTT method. It counts as functional, organism-based. As to conditions: human respiratory syncytial virus, A2, Vero 76. For orientation: Formazan colour is commonly taken as a measure of viable cells.
A further data set concerns Coxsackievirus B2. Description: Antiviral activity against coxsackie B2 virus. Format: functional, organism-based.
Another data set deals with Poliovirus 1. As to the kind of experiment: Antiviral activity against Human poliovirus 1 Sabin. Format: functional.

Active and inactive are the calls of the source. Where only a bound is given, the exact number is not on record here.

By CC50 is commonly meant the concentration giving 50% cytotoxicity. A word on the EC50: it is the concentration needed to bring the measured effect to its halfway point. Consider `O=c1ccc2ccc(O)c(CN3CCCCC3)c2o1`, for which the result (in [1]; in the data set with Vaccinia virus; with Reovirus sp.; in [2]; in the data set on Coxsackievirus B2; with Poliovirus 1) was inactive. For the same compound, the CC50 at 96 h in data set [3] is greater than 100 µM. Moreover, the EC50 (in data set [4]; in the data set on Yellow fever virus; in data set [5]) was greater than 100 µM each time.
As to `COc1ccc2[nH]cc(Cc3c(OC(C)=O)ccc4c(C)cc(=O)oc34)c2c1`, the outcome (in data set [1]; in the data set on Vaccinia virus; in the data set on Reovirus sp.; in data set [2]; in the data set on Poliovirus 1) was inactive. The midpoint of cytotoxicity in data set [3], the CC50 at 96 h, lay at 72 µM. Besides, the EC50 (in [4]; with Yellow fever virus; in [5]) was greater than 100 µM in each case.
Consider `CC(=O)Oc1ccc2c(C)cc(=O)oc2c1Cc1c(C)n(C)c2ccccc12`, for which the result (in data set [1]; in the data set with Vaccinia virus; with Reovirus sp.; in data set [2]; in the data set with Poliovirus 1) was inactive. The compound further came in with a CC50 at 96 h in data set [3] of 24 µM. Besides, the figures for the EC50 (in [4]; in the data set with Yellow fever virus; in [5]) were greater than 40 µM, greater than 58 µM and 26 µM, respectively.
As to `CC(=O)Oc1ccc2c(C)cc(=O)oc2c1Cc1c(N(C)C)oc2ccc3ccccc3c2c1=O`, the outcome (in data set [1]; in the data set on Vaccinia virus; in the data set on Reovirus sp.; in data set [2]; with Poliovirus 1) was inactive. In data set [3], this compound displayed a cytotoxic concentration (CC50) at 96 h greater than 100 µM. The results for the EC50 (in data set [4]; with Yellow fever virus; in data set [5]) were greater than 100 µM, greater than 100 µM and greater than 13 µM, respectively.
On to `CC(=O)c1ccc(N2CCN(Cc3c(O)ccc4ccc(=O)oc34)CC2)cc1`, for which the result (in data set [1]; in the data set with Vaccinia virus; in the data set with Reovirus sp.; in data set [2]; in the data set with Poliovirus 1) was inactive. This compound registered a CC50 at 96 h in data set [3] of 18 µM. Further, the EC50 (in data set [4]; in the data set with Yellow fever virus; in data set [5]) was greater than 100 µM in each case.
`COCCN(CCOC)c1oc2ccc3ccccc3c2c(=O)c1Cc1c(OC(C)=O)ccc2ccc(=O)oc12`: the result (in [1]; in the data set with Vaccinia virus; in the data set on Reovirus sp.; in [2]; in the data set on Poliovirus 1) was inactive. In [3], this compound returned a CC50 at 96 h greater than 100 µM. The EC50 in data set [4] turned out to be 78 µM; with Yellow fever virus it was 100 µM; in data set [5], 5 µM.
Take `COc1ccc2c(=O)c(Cc3c(O)ccc4ccc(=O)oc34)c(N3CCCC3)oc2c1`: the outcome (in data set [1]; in the data set on Vaccinia virus; in the data set on Reovirus sp.; in data set [2]; in the data set with Poliovirus 1) was inactive. In addition, the CC50 at 96 h in data set [3] was greater than 100 µM. In addition, the EC50 (in data set [4]; with Yellow fever virus; in data set [5]) was greater than 100 µM throughout.
